Experimental data reported in ChEMBL document CHEMBL4613322, “HOPPI-NMR: Hot-Peptide-Based Screening Assay for Inhibitors of Protein-Protein Interactions by NMR” (ACS Med Chem Lett, 2020).
Values after ≈ are worked out from the molar mass of the structure shown. Blank lines part the entries; values can stand above or below the compound they belong to. Peptide text beside a SMILES is read from it.

Key:
[1] = target: T1, AP-1 complex subunit beta-1 (Homo sapiens, UniProt Q10567); experiment: Binding affinity to beta-adaptin 1 (unknown origin) by fluorescence polarization assay
T1 sequence (Q10567 whole entry): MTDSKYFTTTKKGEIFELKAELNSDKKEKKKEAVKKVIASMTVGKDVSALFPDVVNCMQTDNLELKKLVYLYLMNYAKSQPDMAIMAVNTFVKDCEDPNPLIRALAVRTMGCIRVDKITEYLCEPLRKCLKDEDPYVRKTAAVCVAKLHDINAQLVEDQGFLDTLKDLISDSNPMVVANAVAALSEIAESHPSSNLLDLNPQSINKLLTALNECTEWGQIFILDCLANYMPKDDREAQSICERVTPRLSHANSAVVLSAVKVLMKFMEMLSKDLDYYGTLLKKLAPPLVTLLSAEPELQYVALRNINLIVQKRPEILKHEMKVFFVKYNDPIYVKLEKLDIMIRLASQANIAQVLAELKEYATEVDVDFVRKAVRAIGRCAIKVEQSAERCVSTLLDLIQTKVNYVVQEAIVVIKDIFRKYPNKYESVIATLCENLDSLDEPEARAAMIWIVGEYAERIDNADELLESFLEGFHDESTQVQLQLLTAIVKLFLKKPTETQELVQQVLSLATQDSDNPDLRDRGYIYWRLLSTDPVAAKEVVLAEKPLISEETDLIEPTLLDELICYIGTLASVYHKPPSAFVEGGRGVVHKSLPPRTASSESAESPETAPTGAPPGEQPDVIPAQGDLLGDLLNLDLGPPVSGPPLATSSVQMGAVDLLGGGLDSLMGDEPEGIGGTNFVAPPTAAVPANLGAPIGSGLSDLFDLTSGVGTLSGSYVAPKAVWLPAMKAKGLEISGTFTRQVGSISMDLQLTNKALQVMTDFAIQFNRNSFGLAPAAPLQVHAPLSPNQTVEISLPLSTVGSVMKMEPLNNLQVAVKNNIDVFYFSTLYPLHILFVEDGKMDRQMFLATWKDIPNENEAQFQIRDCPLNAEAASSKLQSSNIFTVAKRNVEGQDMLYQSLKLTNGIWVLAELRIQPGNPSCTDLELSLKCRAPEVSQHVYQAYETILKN

Bcl-2-like protein 1 = Bcl-2-like protein 1 (Mus musculus, UniProt Q64373); experiment: Binding affinity to BCL-xl in murine B-cell lymphoma assessed as inhibition of BCL-xl/Bax protein-protein interaction
[2] = Solubility of compound in PBS; format: physicochemical

Chain of Bcl-2-like protein 1 (Q64373 whole entry): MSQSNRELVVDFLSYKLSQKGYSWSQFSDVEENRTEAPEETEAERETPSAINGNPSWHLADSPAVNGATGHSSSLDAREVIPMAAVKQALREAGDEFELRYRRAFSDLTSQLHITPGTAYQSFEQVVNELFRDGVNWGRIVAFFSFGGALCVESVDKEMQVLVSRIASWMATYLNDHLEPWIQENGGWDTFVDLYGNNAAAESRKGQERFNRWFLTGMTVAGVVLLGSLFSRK

Kd [1]: 2.1 µM
Compound: CC[C@H](C)[C@H](NC(=O)[C@H](CC(=O)O)NC(=O)[C@H](CC(=O)O)NC(=O)[C@@H](N)CC(=O)O)C(=O)N[C@H](C(=O)N[C@@H](Cc1ccccc1)C(=O)N[C@@H](CCC(=O)O)C(=O)N[C@@H](CC(=O)O)C(=O)N[C@@H](Cc1ccccc1)C(=O)N[C@@H](C)C(=O)N[C@@H](CCCNC(=N)N)C(=O)N[C@@H](CCC(N)=O)C(=O)N[C@@H](CCCNC(=N)N)C(=O)N[C@@H](CC(C)C)C(=O)N[C@@H](CCCCN)C(=O)NCC(=O)N[C@@H](CCSC)C(=O)N[C@@H](CCCCN)C(=O)N[C@@H](CC(=O)O)C(=O)N[C@@H](CC(=O)O)C(=O)O)C(C)C (H-DDDIVFEDFARQRLKGMKDD-OH)

Kd (Bcl-2-like protein 1): 13 µM
Compound: CC[C@H](C)[C@H](NC(=O)[C@H](CCCN=C(N)N)NC(=O)[C@H](CCCCN)NC(=O)[C@H](CC(C)C)NC(=O)[C@H](CS)NC(=O)[C@H](CCC(=O)O)NC(=O)[C@H](CO)NC(=O)[C@H](CC(C)C)NC(=O)[C@H](CCCCN)NC(=O)[C@@H](N)CCCCN)C(=O)NCC(=O)N[C@@H](CC(=O)O)C(=O)N[C@@H](CCC(=O)O)C(=O)N[C@@H](CC(C)C)C(=O)N[C@@H](CC(=O)O)C(=O)N[C@@H](CO)C(=O)O (H-KKLSECLKRIGDELDS-OH)

solubility [2]: 100 µM (≈ 58.2 µg/mL)
Compound: COc1ccc(C2=N[C@@H](c3ccc(Cl)cc3)[C@@H](c3ccc(Cl)cc3)N2C(=O)N2CCNC(=O)C2)c(OC(C)C)c1 [NUTLIN-3]
